# Source: ChEMBL document CHEMBL1201862, “PubChem BioAssay data set” (2004)
#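 1) Cells in 96-well plates. 2) Compound, 48 h, 5 concentrations. 3) Linear interpolation between surrounding doses. 4) Unreached endpoint = highest concentration. At the GI50, growth is halved.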 Active and inactive are the calls of the source. Rule as the data show it: active = GI50 up to about 1.1 µM and inactive = higher.
# Tests used:
# Experiment in all cases: DTP human tumour cell line panel, 48 h
# SN12C = tested on: SN12C
# MDA-MB-231 = tested on: MDA-MB-231
# HOP-62 = tested on: HOP-62
# SK-MEL-5 = tested on: SK-MEL-5
# OVCAR-4 = tested on: OVCAR-4
# OVCAR-5 = tested on: OVCAR-5
# HOP-92 = tested on: HOP-92
# NCI-H23 = tested on: NCI-H23
# MOLT-4 = tested on: MOLT-4
# RXF 393 = tested on: RXF 393
# MDA-N = tested on: MDA-N
# UACC-62 = tested on: UACC-62
# U-251 = tested on: U-251
# HCC 2998 = tested on: HCC 2998
# BT-549 = tested on: BT-549
# CAKI-1 = tested on: CAKI-1
# SW-620 = tested on: SW-620
# OVCAR-8 = tested on: OVCAR-8
# COLO 205 = tested on: COLO 205
# CCRF-CEM = tested on: CCRF-CEM
# IGROV-1 = tested on: IGROV-1
# HL-60 = tested on: HL-60
# NCI-H460 = tested on: NCI-H460
# SK-MEL-2 = tested on: SK-MEL-2
# SNB-19 = tested on: SNB-19
# LOX IMVI = tested on: LOX IMVI
# NCI/ADR-RES = tested on: NCI/ADR-RES
# MCF7 = tested on: MCF7
# T47D = tested on: T47D
# UACC-257 = tested on: UACC-257
# 786-0 = tested on: 786-0
# NCI-H226 = tested on: NCI-H226
# K562 = tested on: K562
# ACHN = tested on: ACHN
# MDA-MB-435 = tested on: MDA-MB-435
# EKVX = tested on: EKVX
# OVCAR-3 = tested on: OVCAR-3
# SK-MEL-28 = tested on: SK-MEL-28
# M14 = tested on: M14
# KM12 = tested on: KM12
# HT-29 = tested on: HT-29
# A498 = tested on: A498
# Malme-3M = tested on: Malme-3M
# UO-31 = tested on: UO-31
# SF-268 = tested on: SF-268
# SK-OV-3 = tested on: SK-OV-3
# RPMI-8226 = tested on: RPMI-8226
# HCT-15 = tested on: HCT-15
# NCI-H522 = tested on: NCI-H522
# SNB-75 = tested on: SNB-75
# Hs-578T = tested on: Hs-578T
# SR = tested on: SR
# PC-3 = tested on: PC-3
# SF-539 = tested on: SF-539
# SF-295 = tested on: SF-295
# TK-10 = tested on: TK-10
# DU-145 = tested on: DU-145
# HCT-116 = tested on: HCT-116
# A549 = tested on: A549
smiles,measurement,setting,value
COc1cccc(Nc2n[nH]c(NS(=O)(=O)c3cc(C)c(Cl)cc3S)n2)c1,GI50,SN12C,> 100 µM (inactive)
same,GI50,MDA-MB-231,> 100 µM (inactive)
same,GI50,HOP-62,> 100 µM (inactive)
same,GI50,SK-MEL-5,> 100 µM (inactive)
same,GI50,OVCAR-4,> 100 µM (inactive)
same,GI50,OVCAR-5,> 100 µM (inactive)
same,GI50,HOP-92,> 100 µM (inactive)
same,GI50,NCI-H23,> 100 µM (inactive)
same,GI50,MOLT-4,> 100 µM (inactive)
same,GI50,RXF 393,> 100 µM (inactive)
same,GI50,MDA-N,> 100 µM (inactive)
same,GI50,UACC-62,> 100 µM (inactive)
same,GI50,U-251,> 100 µM (inactive)
same,GI50,HCC 2998,> 100 µM (inactive)
same,GI50,BT-549,> 100 µM (inactive)
same,GI50,CAKI-1,> 100 µM (inactive)
same,GI50,SW-620,> 100 µM (inactive)
same,GI50,OVCAR-8,> 100 µM (inactive)
same,GI50,COLO 205,> 100 µM (inactive)
same,GI50,CCRF-CEM,> 100 µM (inactive)
same,GI50,IGROV-1,> 100 µM (inactive)
same,GI50,HL-60,> 100 µM (inactive)
same,GI50,NCI-H460,> 100 µM (inactive)
same,GI50,SK-MEL-2,> 100 µM (inactive)
same,GI50,SNB-19,> 100 µM (inactive)
same,GI50,LOX IMVI,> 100 µM (inactive)
same,GI50,NCI/ADR-RES,> 100 µM (inactive)
same,GI50,MCF7,> 100 µM (inactive)
same,GI50,T47D,> 100 µM (inactive)
same,GI50,UACC-257,> 100 µM (inactive)
same,GI50,786-0,> 100 µM (inactive)
same,GI50,NCI-H226,> 100 µM (inactive)
same,GI50,K562,> 100 µM (inactive)
same,GI50,ACHN,> 100 µM (inactive)
same,GI50,MDA-MB-435,> 100 µM (inactive)
same,GI50,EKVX,> 100 µM (inactive)
same,GI50,OVCAR-3,> 100 µM (inactive)
same,GI50,SK-MEL-28,> 100 µM (inactive)
same,GI50,M14,> 100 µM (inactive)
same,GI50,KM12,> 100 µM (inactive)
same,GI50,HT-29,> 100 µM (inactive)
same,GI50,A498,> 100 µM (inactive)
same,GI50,Malme-3M,> 100 µM (inactive)
same,GI50,UO-31,> 100 µM (inactive)
same,GI50,SF-268,> 100 µM (inactive)
same,GI50,SK-OV-3,> 100 µM (inactive)
same,GI50,RPMI-8226,> 100 µM (inactive)
same,GI50,HCT-15,> 100 µM
same,GI50,NCI-H522,> 100 µM (inactive)
same,GI50,SNB-75,> 100 µM (inactive)
same,GI50,Hs-578T,> 100 µM (inactive)
same,GI50,SR,> 100 µM (inactive)
same,GI50,PC-3,> 100 µM (inactive)
same,GI50,SF-539,> 100 µM (inactive)
same,GI50,SF-295,> 100 µM (inactive)
same,GI50,TK-10,> 100 µM (inactive)
same,GI50,DU-145,> 100 µM (inactive)
same,GI50,HCT-116,> 100 µM (inactive)
same,GI50,A549,> 100 µM (inactive)
CC1=NN(C(=O)CC(=O)Nc2ccccc2C)C(=O)C1/N=N\c1ccc(S(=O)(=O)c2ccc(/N=N/C3C(=O)N(C(=O)CC(=O)Nc4ccccc4C)N=C3C)cc2)cc1 (configuration not stated),GI50,SN12C,> 100 µM (inactive)
same,GI50,MDA-MB-231,> 100 µM (inactive)
same,GI50,HOP-62,> 100 µM (inactive)
same,GI50,SK-MEL-5,62.2 µM (inactive)
same,GI50,OVCAR-4,> 100 µM (inactive)
same,GI50,OVCAR-5,> 100 µM (inactive)
same,GI50,HOP-92,> 100 µM (inactive)
same,GI50,NCI-H23,> 100 µM (inactive)
same,GI50,MOLT-4,> 100 µM (inactive)
same,GI50,RXF 393,> 100 µM (inactive)
same,GI50,MDA-N,> 100 µM (inactive)
same,GI50,UACC-62,> 100 µM (inactive)
same,GI50,U-251,67.9 µM (inactive)
same,GI50,HCC 2998,> 100 µM (inactive)
same,GI50,BT-549,> 100 µM (inactive)
same,GI50,CAKI-1,> 100 µM (inactive)
same,GI50,SW-620,> 10 µM (inactive)
same,GI50,OVCAR-8,74.6 µM (inactive)
same,GI50,COLO 205,> 100 µM (inactive)
same,GI50,CCRF-CEM,> 100 µM (inactive)
same,GI50,IGROV-1,68.9 µM (inactive)
same,GI50,HL-60,> 100 µM (inactive)
same,GI50,NCI-H460,> 100 µM (inactive)
same,GI50,SK-MEL-2,> 100 µM (inactive)
same,GI50,SNB-19,> 100 µM (inactive)
same,GI50,LOX IMVI,> 100 µM (inactive)
same,GI50,NCI/ADR-RES,> 100 µM (inactive)
same,GI50,MCF7,> 100 µM (inactive)
same,GI50,T47D,> 100 µM (inactive)
same,GI50,UACC-257,> 100 µM (inactive)
same,GI50,786-0,> 100 µM (inactive)
same,GI50,NCI-H226,> 100 µM (inactive)
same,GI50,K562,> 100 µM (inactive)
same,GI50,ACHN,> 100 µM (inactive)
same,GI50,MDA-MB-435,> 100 µM (inactive)
same,GI50,EKVX,> 100 µM (inactive)
same,GI50,OVCAR-3,> 100 µM (inactive)
same,GI50,SK-MEL-28,> 100 µM (inactive)
same,GI50,M14,> 100 µM (inactive)
same,GI50,KM12,> 100 µM (inactive)
same,GI50,HT-29,> 100 µM (inactive)
same,GI50,A498,> 100 µM (inactive)
same,GI50,Malme-3M,> 100 µM (inactive)
same,GI50,UO-31,> 100 µM (inactive)
same,GI50,SF-268,> 100 µM (inactive)
same,GI50,SK-OV-3,> 100 µM (inactive)
same,GI50,RPMI-8226,> 100 µM (inactive)
same,GI50,HCT-15,> 100 µM
same,GI50,NCI-H522,46 µM (inactive)
same,GI50,SNB-75,> 100 µM (inactive)
same,GI50,Hs-578T,85.9 µM (inactive)
same,GI50,SR,> 100 µM (inactive)
same,GI50,PC-3,> 100 µM (inactive)
same,GI50,SF-539,> 100 µM (inactive)
same,GI50,SF-295,> 100 µM (inactive)
same,GI50,TK-10,> 100 µM (inactive)
same,GI50,DU-145,> 100 µM (inactive)
same,GI50,HCT-116,> 100 µM (inactive)
same,GI50,A549,> 100 µM (inactive)
CN(C)CCCN1CCC2(CCC(C(C)(C)C)CC2)CC1,GI50,SN12C,7.35 µM (inactive)
same,GI50,MDA-MB-231,1.91 µM (inactive)
same,GI50,HOP-62,2.15 µM (inactive)
same,GI50,SK-MEL-5,1.61 µM (inactive)
same,GI50,OVCAR-4,6.31 µM (inactive)
same,GI50,OVCAR-5,3.08 µM (inactive)
same,GI50,HOP-92,3.18 µM (inactive)
same,GI50,NCI-H23,7.48 µM (inactive)
same,GI50,MOLT-4,1.77 µM (inactive)
same,GI50,RXF 393,1.6 µM (inactive)
same,GI50,MDA-N,0.912 µM (active)
same,GI50,UACC-62,1.88 µM (inactive)
same,GI50,U-251,1.76 µM (inactive)
same,GI50,HCC 2998,0.21 µM (active)
same,GI50,BT-549,11.3 µM (inactive)
same,GI50,CAKI-1,2.72 µM (inactive)
same,GI50,SW-620,2.4 µM (inactive)
same,GI50,OVCAR-8,3.8 µM (inactive)
same,GI50,COLO 205,1.51 µM (inactive)
same,GI50,CCRF-CEM,1.58 µM (inactive)
same,GI50,IGROV-1,4.01 µM (inactive)
same,GI50,HL-60,0.603 µM (active)
same,GI50,NCI-H460,0.8 µM (active)
same,GI50,SK-MEL-2,1.75 µM (inactive)
same,GI50,SNB-19,3.27 µM (inactive)
same,GI50,LOX IMVI,1.42 µM (inactive)
same,GI50,NCI/ADR-RES,5.08 µM (inactive)
same,GI50,MCF7,1.65 µM (inactive)
same,GI50,T47D,1.88 µM (inactive)
same,GI50,UACC-257,1.41 µM (inactive)
same,GI50,786-0,1.54 µM (inactive)
same,GI50,NCI-H226,6.82 µM (inactive)
same,GI50,K562,0.266 µM (active)
same,GI50,ACHN,7.05 µM (inactive)
same,GI50,MDA-MB-435,0.47 µM (active)
same,GI50,EKVX,5.33 µM (inactive)
same,GI50,OVCAR-3,3.1 µM (inactive)
same,GI50,SK-MEL-28,1.77 µM (inactive)
same,GI50,M14,1.85 µM (inactive)
same,GI50,KM12,2.38 µM (inactive)
same,GI50,HT-29,0.409 µM (active)
same,GI50,A498,2 µM (inactive)
same,GI50,Malme-3M,1.89 µM (inactive)
same,GI50,UO-31,1.56 µM (inactive)
same,GI50,SF-268,2.32 µM (inactive)
same,GI50,SK-OV-3,9.29 µM (inactive)
same,GI50,RPMI-8226,1.25 µM (inactive)
same,GI50,HCT-15,2.22 µM
same,GI50,NCI-H522,2.49 µM (inactive)
same,GI50,SNB-75,2.08 µM (inactive)
same,GI50,Hs-578T,1.89 µM (inactive)
same,GI50,SR,1.42 µM (inactive)
same,GI50,PC-3,2.52 µM (inactive)
same,GI50,SF-539,1.88 µM (inactive)
same,GI50,SF-295,2.03 µM (inactive)
same,GI50,TK-10,1.66 µM (inactive)
same,GI50,DU-145,6.71 µM (inactive)
same,GI50,HCT-116,1.56 µM (inactive)
same,GI50,A549,3.27 µM (inactive)
